Data on 3 molecules can be found in PMC10650850, “Discovery, Structure–Activity Relationship and In Vitro Anticancer Activity of Small-Molecule Inhibitors of the Protein–Protein Interactions between AF9/ENL and AF4 or DOT1L” (Cancers, 2023).

Entries after “also recorded” stand apart in the source; their conditions may differ. No end group written: not given here. *: point of attachment. Biotin = O=C1N[C@H]2[C@H](CS[C@H]2CCCCC(=O)*)N1; Ahx = NCCCCCC(=O)O

For assay [1], the target named is T1, AF9-AF4 (Homo sapiens, UniProt P42568).
T1 construct: human AF9 AHD domain (475–568); made in house; host or cells: E. coli BL21(DE3)
T1 sequence (P42568 475-568): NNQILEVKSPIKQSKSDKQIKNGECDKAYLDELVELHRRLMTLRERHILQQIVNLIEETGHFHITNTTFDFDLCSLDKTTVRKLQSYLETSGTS
Kind of assay: AlphaLisa assay, AF9-AF4 interaction. The settings on record: AF9 AHD, AF4 peptide. Type of assay: binding. As for the experimental part:
(§1) Transcription cofactor AF4, which is the most frequent (~35%) fusion protein in MLL1-r leukemia, is another binding partner of AF9/ENL [35, 36, 37]. The AF9/ENL-AF4 interactions are essential for the formation of SEC, which causes aberrant gene expression in MLL-r leukemia and other AMLs. Using our previously developed AlphaLisa assays, selected compounds were tested for their ability to inhibit the PPIs between AF9 or ENL and AF4.
(§2) The cDNA for the human AF9 AHD domain (475–568) and ENL AHD domain (489–559) was synthesized (by Genscript, Piscataway, NJ, USA) and inserted into the pMAL c5X expression plasmid. The DOT1L peptide (Biotin-AHX-[…]) and AF4 peptide (Biotin-AHX-[…]) for the Alpha assay were purchased from Genscript.
(§3) Alpha assays were developed in our previous publication, using a Perkin-Elmer AlphaLisa anti-MBP kit, which contains streptavidin donor beads and anti-MBP acceptor beads. Briefly, the assay was performed using a MBP-protein (5 nM), a biotinylated peptide (40 nM), and increasing concentrations of a compound in 25 µL buffer (PBS with 0.5% BSA, pH 7.5) in 384-well plates according to the manufacturer’s protocol and measured with a Tecan SPARK microplate reader. Data were imported into Prism (version 5.0), and IC50 values from 3 independent experiments with standard deviation were obtained by using a standard dose-response curve fitting.

Assay [2] concerns the target T2, AF9-DOT1L interaction (Homo sapiens, UniProt P42568).
T2 construct: human AF9 AHD domain (475–568); made in house; host or cells: E. coli BL21(DE3)
T2 sequence (P42568 475-568): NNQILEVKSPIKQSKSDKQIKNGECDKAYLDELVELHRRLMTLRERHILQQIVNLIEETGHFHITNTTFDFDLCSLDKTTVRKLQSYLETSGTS
As to the kind of experiment: Pull-down assay of AF9 AHD with DOT1L peptide-coated beads. Type of assay: binding. An excerpt:
A pull-down assay was used to confirm that the strong inhibitors could disrupt the AF9-DOT1L interaction. Streptavidin agarose beads coated with biotinylated DOT1L peptide were used to pull-down the protein AF9 AHD in the solution, followed by thorough washing, SDS-PAGE (sodium dodecyl sulfate-polyacrylamide gel electrophoresis) and Western blotting to visualize and quantitate the protein. […] This alternative, non-optical method confirmed that compounds 24 and 50 can inhibit the PPI between AF9 and DOT1L.
The pull-down assays were conducted following our previous method. Briefly, the biotinylated DOT1L peptide (0.25 mg/mL) was incubated with streptavidin agarose beads (20 μL) in PBS containing 0.1% Triton X-100 (400 µL) for 3h to yield, after washing, DOT1L-coated beads. MBP-tagged AF9 AHD (0.2 µM, 400 µL) was pre-incubated with a compound for 1 h before adding to the beads. After 6 h incubation at 4 °C, the beads were collected, thoroughly washed, and subjected to SDS-PAGE and analyzed by Western blot using an MBP antibody (#2396, Cell signaling, Danvers, MA, USA).

Assay [3] concerns panel of MLL-r leukemia and other cancer cells. As to the kind of experiment: Antiproliferation assay (XTT), panel of MLL-r leukemia and other cancer cells. In kind it is cell-based. The settings on record: 168 h, MV4;11, Molm-13, NB4 and HL60 cells, 7 days, read-out: Antitumor activity EC50, span over MLL-r leukemia and AML cells. As to the method: (§4) The antitumor activity of selected compounds was evaluated against the proliferation of a panel of MLL-r leukemia and other cancer cells. MV4;11 and Molm-13 leukemia cells contain MLL-AF4 and MLL-AF9 fusion oncogenes, respectively. NB4 and HL60 are AML cells without MLL translocation. Hela (cervical cancer) is a solid tumor cell line. […] The anti-proliferation activity of these compounds against other AML cells (i.e., NB4 and HL60) might be due to their inhibition of SEC-mediated gene expression (e.g., Myc), as observed in our previous studies.
(§5) Proliferation inhibition assays were performed using an XTT assay kit (Biotium, Fremont, CA, USA) following our previous methods. The antiproliferation EC50 values were determined using Prism 5 and the reported results were the mean values of at least three independent experiments. The incubation time for all compounds was 7 days.

Assay [4] deals with HL60. Kind of assay: Antiproliferation assay (XTT), HL60.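 Note: EC50 values in Micromolar not Nanomolar.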 The settings on record: Homo sapiens, HL-60, 168 h, 7 days incubation, read-out: Antitumor activity EC50, HL60. In kind it is cell-based. As for the experimental part: as §4, §5
Assay [5] addresses T3, ENL-AF4 (Homo sapiens, UniProt Q03111).
T3 construct: ENL AHD domain (489–559); made in house; host or cells: E. coli BL21(DE3)
T3 sequence (Q03111 489-559): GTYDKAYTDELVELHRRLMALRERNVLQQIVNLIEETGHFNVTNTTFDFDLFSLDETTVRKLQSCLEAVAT
Kind of assay: AlphaLisa assay, ENL-AF4 interaction. The settings on record: ENL AHD, AF4 peptide. Type of assay: binding. As for the experimental part:
as §1, §2, §3

In assay [6] the target is T2, AF9-DOT1L interaction. Kind of assay: AlphaLisa assay, AF9-DOT1L interaction. The settings on record: MBP-protein 5 nM, biotinylated peptide 40 nM, 3 independent experiments with standard deviation, read-out: IC50 (μM) against the AF9-DOT1L interaction. In kind it is binding. The method, boiled down:
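AlphaLisa proximity assay using MBP-tagged human AF9 AHD (475–568, 5 nM) on anti-MBP acceptor beads and biotinylated DOT1L peptide (40 nM) on streptavidin donor beads, in PBS with 0.5% BSA, pH 7.5. Compound titrated; IC50 from dose-response fits of 3 independent experiments.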

For assay [7], the system named is HoxA9, Meis1 and Myc. As to the kind of experiment: RT-qPCR of MLL target genes in Molm-13 cells. In kind it is cell-based. The settings on record: 1 and 5 µM, 4 days. An excerpt: The major function of the SEC is to promote transcription elongation for its bound genes. Because of the high affinity of the PPIs between AF9/ENL and AF4, onco-MLL (e.g., MLL-AF4 or MLL-AF9/-ENL) recruits SEC to MLL target genes, facilitates their expression, and eventually causes leukemia initiation. Next, we investigated whether selected inhibitors of these PPIs can inhibit the expression of HoxA9, Meis1 and Myc, which are MLL target genes and their high expression is characteristic of MLL-r leukemia. In addition, high expression of Myc is also observed in a broad range of AMLs and other cancers and is considered a driving factor for oncogenesis. To this end, RNAs from the control and compound-treated Molm-13 cells (harboring MLL-AF9) were extracted and subjected to quantitative PCR. […] RNA extraction and RT-qPCR were performed following our previous method. 10^5 cells/mL were incubated with a compound for 4 days and the RNA was extracted using an RNeasy mini kit (#74104, Qiagen, Germantown, MD, USA). 100–1000 ng of total RNA was reverse transcribed using iScript™ Reverse Transcription Supermix (Bio-Rad, Hercules, CA, USA), using the manufacturer’s protocol. Quantitative real-time PCR was carried out using Fast SYBR Green Master Mix (Applied Biosystems, Waltham, MA, USA) according to the manufacturer’s instructions. Measurements were performed in triplicate using GAPDH as the reference gene. Real-time PCR was performed using the Biosystems Step One Plus detection system. The following sequences of primers were used: […]

Assay [8] deals with Molm13. As to the kind of experiment: Antiproliferation assay (XTT), Molm-13.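 Note: EC50 values in Micromolar not Nanomolar.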 In kind it is cell-based. The settings on record: Homo sapiens, MOLM-13, 168 h, 7 days incubation, read-out: Antitumor activity EC50, Molm13. As to the method:
as §4, §5

Assay [9] concerns NB4. As to the kind of experiment: Antiproliferation assay (XTT), NB4.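 Note: EC50 values in Micromolar not Nanomolar.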 Type of assay: cell-based. The settings on record: Homo sapiens, NB-4, 168 h, 7 days incubation, read-out: Antitumor activity EC50, NB4. As to the method: as §4, §5
Assay [10] relates to MV4;11. As to the kind of experiment: Antiproliferation assay (XTT), MV4;11.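 Note: EC50 values in Micromolar not Nanomolar.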 The settings on record: Homo sapiens, MV4-11, 168 h, 7 days incubation, read-out: Antitumor activity EC50, MV4;11. In kind it is cell-based. As for the experimental part: as §4, §5
In assay [11] the test system is Hela. Kind of assay: Antiproliferation assay (XTT), Hela. The settings on record: Homo sapiens, HeLa, 168 h, 7 days incubation, read-out: Antitumor activity EC50, Hela. Type of assay: cell-based. As to the method: as §4, §5
For assay [12], the target named is T4, MBP-tagged AF9 AHD domain (475–568) (human, UniProt P42568 475-568).
T4 construct: AF9 (MLLT3), human, C-terminal AHD domain, residues 475-568; cDNA synthesized by Genscript and inserted into pMAL c5X; Expressed from pMAL c5X; the MBP tag is used for capture on anti-MBP acceptor beads and for detection by an MBP antibody; also called MBP-protein; source: E. coli BL21(DE3), purified (amylose resin, size exclusion Superdex 200); not shown: MBP, N-terminal, kept
T4 sequence (looked up): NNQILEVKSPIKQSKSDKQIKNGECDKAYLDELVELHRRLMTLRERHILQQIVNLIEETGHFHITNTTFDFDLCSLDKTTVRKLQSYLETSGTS
As to the kind of experiment: AlphaScreen or HTRF; AlphaLisa (Perkin-Elmer anti-MBP kit): MBP-protein (5 nM) on anti-MBP acceptor beads, biotinylated peptide (40 nM) on streptavidin donor beads, increasing concentrations of a small-molecule compound, 25 µL PBS with 0.5% BSA, pH 7.5, 384-well plates. The settings on record: both partners purified.

In assay [13] the target is T5, MBP-tagged ENL AHD domain (489–559) (human, UniProt Q03111 489-559).
T5 construct: ENL (MLLT1), human, C-terminal AHD domain, residues 489-559; cDNA synthesized by Genscript and inserted into pMAL c5X; Expressed from pMAL c5X; the MBP tag is used for capture on anti-MBP acceptor beads; also called MBP-protein; source: E. coli BL21(DE3), purified (amylose resin, size exclusion Superdex 200); not shown: MBP, N-terminal, kept
T5 sequence (looked up): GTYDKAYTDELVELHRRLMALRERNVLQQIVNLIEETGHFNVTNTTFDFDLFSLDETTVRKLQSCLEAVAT
The description is as above. The settings on record: both partners purified.

With `Cl.O=C(NCC1CCNCC1)c1cc2cc(-c3ccc(N4CCCCC4)cc3)ccc2s1` [Compound 50, 5-(4-(Piperidin-1-yl)phenyl)-N-(piperidin-4-ylmethyl)-benzo[b]thiophene-2-carboxamide hydrochloride], the half-inhibitory concentration (IC50) in assay [1] was 2.5 ± 0.3 µM; in assay [5] it was 3.4 ± 0.4 µM; in assay [6] it was 2.5 ± 0.2 µM. In addition, the remaining activity at 10 µM in assay [2] (Western blot, compound 10 μM, read-out: AF9 AHD % Control) was 27%. In addition, in assay [2] (Western blot, compound 50 μM, read-out: AF9 AHD % Control), the remaining activity at 50 µM was 29%. Besides, the “Effect on AF9 AHD bound to DOT1L peptide-coated beads (in words)” value in [2] (up to 50 µM) is “significantly reduced the amounts of AF9 AHD; also recorded: dose-dependently reduce AF9 AHD”. Besides, the concentration giving a half-maximal response (EC50) is 5.1 to 9.4 µM in [3]; 9 ± 0.9 µM in assay [4]; 5.1 ± 0.2 µM in assay [8]; 9.4 ± 1.2 µM in [9]; 8.2 ± 1.2 µM in assay [10]; 25 ± 2.5 µM in assay [11]. The “Expression of MLL target genes HoxA9, Meis1 and Myc (in words)” value in [7] was “inhibited expression; also recorded: able to reduce the expression”.

B1: AF4 peptide (Biotin-AHX-QSLMVKITLDLLSRIPQPPGK) (peptide)
peptide: {Biotin-Ahx}-QSLMVKITLDLLSRIPQPPGK
notes: stretch of transcription cofactor AF4 (AFF1) with an LxVxIxLxxV/L motif; also called biotinylated AF4 peptide; source: synthetic peptide, bought: Genscript
Turning to B1, the binding result in assay [12] and in [13] was “binds” in each case.

B2: DOT1L peptide (Biotin-AHX-NKLPVSIPLASVVLPSRAERARST) (peptide)
peptide: {Biotin-Ahx}-NKLPVSIPLASVVLPSRAERARST
notes: stretch of histone H3K79 methyltransferase DOT1L with an LxVxIxLxxV/L motif; also called biotinylated DOT1L peptide; source: synthetic peptide, bought: Genscript
With B2, the binding result in [12] was “binds”.
